Laboratory results: patent publication US20230141603A1, “BENZODIAZEPINE DERIVATIVES AS GABA A GAMMA1 PAM” (Hoffmann-La Roche Inc., priority 2021, published 2023)
pKi: −log10 of the molar value.

Columns and labels:
h-GABAA α1β3γ2 = target: T1, h-GABAA α1β3γ2 (Homo sapiens, UniProt P14867+P18507); experiment: Radioligand binding assay, [3H]Flumazenil competition, HEK293F membranes; conditions: for γ2/γ1 Selectivity Ratio: Ki α1β3γ2 (nM)/Ki α2β2γ1 (nM); for LogSel: Log[Ki α1β3γ2 (nM)/Ki α2β2γ1 (nM)]
T1 construct: expressed in transfected cells; host or cells: HEK293F cells, membranes
Experimental: The affinity of compounds at GABAA γ2 subunit-containing receptors was measured by competition for [^3H]Flumazenil (81.1 Ci/mmol; Roche) binding to HEK293F cells expressing human (transiently transfected) receptors of composition α1β3γ2.
Harvested pellets from HEK293F cells expressing the different GABAA γ2 receptor subtypes were resuspended in Mannitol Buffer pH 7.2-7.4 and processed as described above for the cells expressing the GABAA γ1 subunit-containing receptors.
Assays were incubated to equilibrium for 1 hour at 4° C. and harvested onto GF/C uni-filters (Packard) by filtration using a Packard harvester and washing with ice-cold wash buffer (50 mM Tris; pH 7.5). After drying, filter-retained radioactivity was detected by liquid scintillation counting. Ki values were calculated using Excel-Fit (Microsoft) and are the means of two determinations.

h-GABAA α1β2γ1 = target: T2, h-GABAA α1β2γ1 (Homo sapiens, UniProt P14867+Q8N1C3); experiment: Radioligand binding assay, [3H]RO7239181 competition, HEK293F membranes
T2 construct: expressed in transfected cells; host or cells: HEK293F cells (ThermoFisher R79007), membranes
T2 sequence (P14867 28-456): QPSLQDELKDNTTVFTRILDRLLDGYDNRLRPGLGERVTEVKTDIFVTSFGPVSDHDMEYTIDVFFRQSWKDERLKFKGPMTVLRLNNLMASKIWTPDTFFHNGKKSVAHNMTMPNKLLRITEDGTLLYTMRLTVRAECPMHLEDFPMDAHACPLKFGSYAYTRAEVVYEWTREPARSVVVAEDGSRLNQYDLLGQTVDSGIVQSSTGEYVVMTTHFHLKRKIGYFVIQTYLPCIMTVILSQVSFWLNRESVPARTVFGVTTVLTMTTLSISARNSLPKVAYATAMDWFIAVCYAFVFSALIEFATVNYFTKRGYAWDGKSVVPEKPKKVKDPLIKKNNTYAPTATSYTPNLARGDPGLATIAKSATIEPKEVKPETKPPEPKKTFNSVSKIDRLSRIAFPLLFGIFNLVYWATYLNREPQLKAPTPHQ
T2 sequence (P47870 25-512 partner limits assumed): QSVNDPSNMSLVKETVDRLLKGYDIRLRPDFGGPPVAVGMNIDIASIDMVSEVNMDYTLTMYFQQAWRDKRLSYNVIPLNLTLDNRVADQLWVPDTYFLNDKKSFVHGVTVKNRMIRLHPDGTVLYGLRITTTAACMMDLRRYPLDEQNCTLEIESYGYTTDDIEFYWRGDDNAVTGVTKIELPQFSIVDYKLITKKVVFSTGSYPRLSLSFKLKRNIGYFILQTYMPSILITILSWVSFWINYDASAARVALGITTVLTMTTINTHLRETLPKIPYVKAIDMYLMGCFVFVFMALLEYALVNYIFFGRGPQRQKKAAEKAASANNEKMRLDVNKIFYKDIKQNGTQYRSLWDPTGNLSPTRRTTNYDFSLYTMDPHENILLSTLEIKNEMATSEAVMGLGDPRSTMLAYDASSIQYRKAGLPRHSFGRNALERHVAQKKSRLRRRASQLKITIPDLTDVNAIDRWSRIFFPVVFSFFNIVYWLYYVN
T2 sequence (Q8N1C3 36-465): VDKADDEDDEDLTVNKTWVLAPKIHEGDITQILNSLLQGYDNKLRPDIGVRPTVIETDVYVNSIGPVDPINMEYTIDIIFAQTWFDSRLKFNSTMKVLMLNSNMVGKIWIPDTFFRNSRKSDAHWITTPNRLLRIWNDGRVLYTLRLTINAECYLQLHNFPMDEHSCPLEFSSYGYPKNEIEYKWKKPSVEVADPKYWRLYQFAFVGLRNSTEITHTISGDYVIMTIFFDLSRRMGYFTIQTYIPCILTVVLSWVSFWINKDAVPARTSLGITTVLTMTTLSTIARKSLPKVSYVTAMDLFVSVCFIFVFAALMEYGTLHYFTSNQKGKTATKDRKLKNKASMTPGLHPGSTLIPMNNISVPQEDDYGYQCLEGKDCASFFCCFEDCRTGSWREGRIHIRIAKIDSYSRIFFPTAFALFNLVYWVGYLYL
Experimental: The affinity of compounds at GABAA γ1 subunit-containing receptors was measured by competition for [^3H]RO7239181 (67.3 Ci/mmol; Roche) binding to membranes from HEK293F cells (ThermoFisher R79007) expressing human (transiently transfected) receptors of composition […], α2β2γ1, α1β2γ1.
Harvested pellets from HEK293F cells expressing the different GABAA receptor subtypes were resuspended in Mannitol Buffer pH 7.2-7.4 (Mannitol 0.29M, Triethylamine 10 mM, Acetic acid 10 mM, EDTA 1 mM plus protease inhibitors (20 tablets Complete, Roche Diagnostics Cat. No. 05 056 489 001 per liter)), washed two times and then resuspended at 1:10 to 1:15 dilution in the same buffer. Cell disruption was performed by stirring the suspension in a Parr vessel #4637 at 435 psi for 15 minutes, and then the suspensions were centrifuged at 1000×g for 15 minutes at 4° C. (Beckman Avanti J-HC; rotor JS-4.2). The supernatant (S1) was transferred in a 21 Schott flask and the pellet (P1) was resuspended with Mannitol Buffer up to 175 ml. The resuspended pellet was transferred into a 250 ml Corning centrifugal beaker and centrifuged at 1500×g for 10 minutes at 4° C. (Beckman Avanti J-HC; rotor JS-4.2). The supernatant (S1) was then transferred in the 21 Schott flask and the pellet was discarded. The supernatants (S1) were centrifuged in 500 ml Beckman polypropylene centrifugal beaker at 15′000×g for 30 minutes at 4° C. (Beckman Avanti J-20 XP; rotor JLA-10.500). The pellet (P2) was resuspended with Mannitol Buffer 1:1 and frozen at −80° C. The supernatant (S2) was centrifuged in 100 ml Beckman polypropylene centrifugal tubes at 48000×g for 50 minutes at 4° C. (Beckman Avanti J-20 XP; rotor JA-18). The supernatant (S3) was discarded and the pellet (P3) was resuspended with 1:1 Mannitol Buffer. The P2 and P3 protein concentration was determined with the BIORAD Standard assay method with bovine serum albumin as standard and measured on the NANO-Drop 1000. The membrane suspension was aliquots (500 μl per tube) and stored at −80° C. until required. Membrane homogenates were resuspended and polytronised (Polytron PT1200E Kinematica AG) in Potassium Phosphate 10 mM, KCl 100 mM binding buffer at pH 7.4 to a final assay concentration determined with a previous experiment.
Assays were incubated to equilibrium for 1 hour at 4° C. and then, membranes were filtered onto unifilter (96-well white microplate with bonded GF/C filters preincubated 20-50 minutes in 0.3% Polyethylenimine) with a Filtermate 196 harvester (Packard BioScience) and washed 4 times with cold Potassium Phosphate 10 mM pH 7.4, KCl 100 mM binding buffer. After drying, filter-retained radioactivity was detected by liquid scintillation counting. Ki values were calculated using Excel-Fit (Microsoft) and are the means of two determinations.

SMILES	pKi (h-GABAA α1β3γ2)	γ2/γ1 Selectivity Ratio (h-GABAA α1β3γ2; Table 1)	LogSel (h-GABAA α1β3γ2; Table 1)	pKi (h-GABAA α1β2γ1)	γ2/γ1 Selectivity Ratio (h-GABAA α1β3γ2; Table 3)	LogSel (h-GABAA α1β3γ2; Table 3)
Fc1cccnc1C1=NCc2nnc(C3CC3)n2-c2ccc(Cl)c(Cl)c21 [Example 65, 7,8-dichloro-1-cyclopropyl-6-(3-fluoro-2-pyridyl)-4H-[1,2,4]triazolo[4,3-a][1,4]benzodiazepine]	5.81	24.0	1.38	6.96	–	–
Fc1ccccc1C1=NCc2nnc(-c3ccncn3)n2-c2ccc(Cl)c(Cl)c21 [Example 18, 7,8-dichloro-6-(2-fluorophenyl)-1-pyrimidin-4-yl-4H-[1,2,4]triazolo[4,3-a][1,4]benzodiazepine]	6.06	40.1	1.60	7.27	–	–
Cc1nnc2n1-c1ccc(C(F)(F)F)c(Cl)c1C(c1ncccc1F)=NC2 [Example 78, 7-chloro-6-(3-fluoro-2-pyridyl)-1-methyl-8-(trifluoromethyl)-4H-[1,2,4]triazolo[4,3-a][1,4]benzodiazepine]	5.35	87.4	1.94	7.17	–	–
Cc1nnc2n1-c1ccc(C(F)(F)F)c(Cl)c1C(c1c(F)cccc1F)=NC2 [Example 40, 7-chloro-6-(2,6-difluorophenyl)-1-methyl-8-(trifluoromethyl)-4H-[1,2,4]triazolo[4,3-a][1,4]benzodiazepine]	6.00	37.5	1.57	7.68	37.5	1.6
Cc1nnc2n1-c1ccc(Cl)c(Cl)c1C(c1c(F)cccc1F)=NC2 [Example 5, 7,8-dichloro-6-(2,6-difluorophenyl)-1-methyl-4H-[1,2,4]triazolo[4,3-a][1,4]benzodiazepine]	6.86	20.8	1.32	8.09	–	–
Cn1cc(-c2nnc3n2-c2ccc(Cl)c(Cl)c2C(c2ncccc2F)=NC3)cn1 [Example 58, 7,8-dichloro-6-(3-fluoro-2-pyridyl)-1-(1-methylpyrazol-4-yl)-4H-[1,2,4]triazolo[4,3-a][1,4]benzodiazepine]	5.88	39.4	1.60	6.88	–	–
Fc1cccc(F)c1C1=NCc2nnc(-c3ccncn3)n2-c2ccc(Cl)c(Cl)c21 [Example 12, 7,8-dichloro-6-(2,6-difluorophenyl)-1-pyrimidin-4-yl-4H-[1,2,4]triazolo[4,3-a][1,4]benzodiazepine]	6.31	47.3	1.67	7.75	–	–
Cc1nnc2n1-c1ccc(C(C)(F)F)c(Cl)c1C(c1c(F)cccc1F)=NC2 [Example 22, 7-chloro-8-(1,1-difluoroethyl)-6-(2,6-difluorophenyl)-1-methyl-4H-[1,2,4]triazolo[4,3-a][1,4]benzodiazepine]	5.55	74.6	1.87	7.16	–	–
Fc1cccc(F)c1C1=NCc2nncn2-c2ccc(I)c(Cl)c21 [Example 34, 7-chloro-6-(2,6-difluorophenyl)-8-iodo-4H-[1,2,4]triazolo[4,3-a][1,4]benzodiazepine]	6.79	15.9	1.20	8.25	–	–
Fc1cccc(F)c1C1=NCc2nncn2-c2ccc(Br)c(Cl)c21 [Example 7, 8-bromo-7-chloro-6-(2,6-difluorophenyl)-4H-[1,2,4]triazolo[4,3-a][1,4]benzodiazepine]	6.69	24.2	1.38	8.04	–	–
Fc1cccnc1C1=NCc2nnc(-c3cccnn3)n2-c2ccc(C(F)(F)F)c(Cl)c21 [Example 72, 7-chloro-6-(3-fluoro-2-pyridyl)-1-pyridazin-3-yl-8-(trifluoromethyl)-4H-[1,2,4]triazolo[4,3-a][1,4]benzodiazepine]	4.99	342.1	2.53	6.56	–	–
Fc1cccnc1C1=NCc2nncn2-c2ccc(Br)c(Cl)c21 [Example 29, 8-bromo-7-chloro-6-(3-fluoro-2-pyridyl)-4H-[1,2,4]triazolo[4,3-a][1,4]benzodiazepine]	6.10	16.6	1.22	7.18	–	–
Fc1cccnc1C1=NCc2nnc(C3CC3)n2-c2ccc(Br)c(Cl)c21 [Example 77, 8-bromo-7-chloro-1-cyclopropyl-6-(3-fluoro-2-pyridyl)-4H-[1,2,4]triazolo[4,3-a][1,4]benzodiazepine]	6.15	36.6	1.56	7.38	–	–
Fc1cccnc1C1=NCc2nnc(-c3cccnn3)n2-c2ccc(Br)c(Cl)c21 [Example 45, 8-bromo-7-chloro-6-(3-fluoro-2-pyridyl)-1-pyridazin-3-yl-4H-[1,2,4]triazolo[4,3-a][1,4]benzodiazepine]	5.91	77.7	1.89	7.26	–	–
